Source: PubChem BioAssay (NCI)
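At the GI50, growth is halved. At the TGI there is no net growth.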 Residues, ends and D or L forms follow the SMILES beside them. *: point of attachment. Cbz = O=C(OCc1ccccc1)*

Assays:
Assay in all cases: growth of human tumour cells (NCI), 384-well format
SNB-75 CNS = test system: SNB-75 CNS
NCI-H522 lung = test system: NCI-H522 lung
OVCAR-5 ovarian = test system: OVCAR-5 ovarian
SF-539 CNS = test system: SF-539 CNS
NCI/ADR-RES ovarian = test system: NCI/ADR-RES ovarian
PC-3 prostate = test system: PC-3 prostate
NCI-H226 lung = test system: NCI-H226 lung
HCC-2998 colon = test system: HCC-2998 colon
EKVX NSCLC = test system: EKVX NSCLC
LOX IMVI melanoma = test system: LOX IMVI melanoma
MALME-3M melanoma = test system: MALME-3M melanoma
MOLT-4 leukemia = test system: MOLT-4 leukemia
T-47D breast = test system: T-47D breast
DU-145 prostate = test system: DU-145 prostate
HOP-62 NSCLC = test system: HOP-62 NSCLC
HCT-15 colon = test system: HCT-15 colon
HS 578T breast = test system: HS 578T breast
OVCAR-8 ovarian = test system: OVCAR-8 ovarian
SW-620 colon = test system: SW-620 colon
NCI-H23 lung = test system: NCI-H23 lung
786-0 renal = test system: 786-0 renal
ACHN renal = test system: ACHN renal
RXF 393 renal = test system: RXF 393 renal
SK-MEL-28 melanoma = test system: SK-MEL-28 melanoma
M14 melanoma = test system: M14 melanoma
A498 renal = test system: A498 renal
SK-OV-3 ovarian = test system: SK-OV-3 ovarian
NCI-H460 NSCLC = test system: NCI-H460 NSCLC
MDA-MB-435 melanoma = test system: MDA-MB-435 melanoma
HL-60(TB) leukemia = test system: HL-60(TB) leukemia
UACC-257 melanoma = test system: UACC-257 melanoma
SK-MEL-5 melanoma = test system: SK-MEL-5 melanoma
UO-31 renal = test system: UO-31 renal
HT29 colon = test system: HT29 colon
HOP-92 NSCLC = test system: HOP-92 NSCLC
SF-295 CNS = test system: SF-295 CNS
SR leukemia = test system: SR leukemia
BT-549 breast = test system: BT-549 breast
OVCAR-4 ovarian = test system: OVCAR-4 ovarian
MDA-MB-468 breast = test system: MDA-MB-468 breast
NCI-H322M lung = test system: NCI-H322M lung
IGROV1 ovarian = test system: IGROV1 ovarian
COLO 205 colon = test system: COLO 205 colon
TK-10 renal = test system: TK-10 renal
SN12C renal = test system: SN12C renal
RPMI-8226 leukemia = test system: RPMI-8226 leukemia
KM12 colon = test system: KM12 colon

Compound: Cc1[nH]nc2ncc(C(=O)N3CCC[C@H]3c3ccc(Cl)cc3)cc12
- GI50 (SNB-75 CNS): > 78.1 µM
- TGI (SNB-75 CNS): > 100 µM
- GI50 (NCI-H522 lung): 21.3 µM
- TGI (NCI-H522 lung): > 100 µM
- GI50 (OVCAR-5 ovarian): > 100 µM
- TGI (OVCAR-5 ovarian): > 100 µM
- GI50 (SF-539 CNS): > 91.4 µM
- TGI (SF-539 CNS): > 100 µM
- GI50 (NCI/ADR-RES ovarian): 30.8 µM
- TGI (NCI/ADR-RES ovarian): > 100 µM
- GI50 (PC-3 prostate): 48.9 µM
- TGI (PC-3 prostate): > 100 µM
- GI50 (NCI-H226 lung): 39.1 µM
- TGI (NCI-H226 lung): > 100 µM
- GI50 (HCC-2998 colon): 32.3 µM
- TGI (HCC-2998 colon): > 100 µM
- GI50 (EKVX NSCLC): > 100 µM
- TGI (EKVX NSCLC): > 100 µM
- GI50 (LOX IMVI melanoma): 60.6 µM
- TGI (LOX IMVI melanoma): > 100 µM
- GI50 (MALME-3M melanoma): > 100 µM
- TGI (MALME-3M melanoma): > 100 µM
- GI50 (MOLT-4 leukemia): 25.5 µM
- TGI (MOLT-4 leukemia): > 72.7 µM
- GI50 (T-47D breast): 68.2 µM
- TGI (T-47D breast): > 100 µM
- GI50 (DU-145 prostate): > 100 µM
- TGI (DU-145 prostate): > 100 µM
- GI50 (HOP-62 NSCLC): > 54.9 µM
- TGI (HOP-62 NSCLC): > 100 µM
- GI50 (HCT-15 colon): > 78.6 µM
- TGI (HCT-15 colon): > 100 µM
- GI50 (HS 578T breast): 41.4 µM
- TGI (HS 578T breast): > 100 µM
- GI50 (OVCAR-8 ovarian): > 100 µM
- TGI (OVCAR-8 ovarian): > 100 µM
- GI50 (SW-620 colon): 30.9 µM
- TGI (SW-620 colon): > 79.6 µM
- GI50 (NCI-H23 lung): 36.6 µM
- TGI (NCI-H23 lung): > 100 µM
- GI50 (786-0 renal): 52.8 µM
- TGI (786-0 renal): > 100 µM
- GI50 (ACHN renal): 22.1 µM
- TGI (ACHN renal): 62 µM
- GI50 (RXF 393 renal): 19.7 µM
- TGI (RXF 393 renal): 46.7 µM
- GI50 (SK-MEL-28 melanoma): > 100 µM
- TGI (SK-MEL-28 melanoma): > 100 µM
- GI50 (M14 melanoma): > 100 µM
- TGI (M14 melanoma): > 100 µM
- GI50 (A498 renal): 39 µM
- TGI (A498 renal): > 100 µM
- GI50 (SK-OV-3 ovarian): > 100 µM
- TGI (SK-OV-3 ovarian): > 100 µM
- GI50 (NCI-H460 NSCLC): 60.4 µM
- TGI (NCI-H460 NSCLC): > 100 µM
- GI50 (MDA-MB-435 melanoma): > 100 µM
- TGI (MDA-MB-435 melanoma): > 100 µM
- GI50 (HL-60(TB) leukemia): 19.7 µM
- TGI (HL-60(TB) leukemia): 34.3 µM
- GI50 (UACC-257 melanoma): > 100 µM
- TGI (UACC-257 melanoma): > 100 µM
- GI50 (SK-MEL-5 melanoma): 50.8 µM
- TGI (SK-MEL-5 melanoma): > 100 µM
- GI50 (UO-31 renal): 46.6 µM
- TGI (UO-31 renal): > 100 µM
- GI50 (HT29 colon): > 100 µM
- TGI (HT29 colon): > 100 µM
- GI50 (HOP-92 NSCLC): > 55.6 µM
- TGI (HOP-92 NSCLC): > 89.7 µM
- GI50 (SF-295 CNS): 55.2 µM
- TGI (SF-295 CNS): > 100 µM
- GI50 (SR leukemia): 11.7 µM
- TGI (SR leukemia): 25 µM
- GI50 (BT-549 breast): 57.7 µM
- TGI (BT-549 breast): > 100 µM
- GI50 (OVCAR-4 ovarian): > 100 µM
- TGI (OVCAR-4 ovarian): > 100 µM
- GI50 (MDA-MB-468 breast): 21.2 µM
- TGI (MDA-MB-468 breast): 68.5 µM
- GI50 (NCI-H322M lung): > 100 µM
- TGI (NCI-H322M lung): > 100 µM
- GI50 (IGROV1 ovarian): 44.7 µM
- TGI (IGROV1 ovarian): > 100 µM
- GI50 (COLO 205 colon): 33.6 µM
- TGI (COLO 205 colon): 83.4 µM
- GI50 (TK-10 renal): 80.6 µM
- TGI (TK-10 renal): > 100 µM
- GI50 (SN12C renal): > 100 µM
- TGI (SN12C renal): > 100 µM
- GI50 (RPMI-8226 leukemia): 54.5 µM
- TGI (RPMI-8226 leukemia): > 100 µM
- GI50 (KM12 colon): 31.5 µM
- TGI (KM12 colon): > 85.1 µM

Compound: CC(C)C[C@@H](C=O)NC(=O)[C@H](CC(C)C)NC(=O)[C@H](CC(C)C)NC(=O)OCc1ccccc1 (Cbz-Leu-Leu-Leu-aldehyde)
- GI50 (SNB-75 CNS): 0.185 µM
- TGI (SNB-75 CNS): 0.351 µM
- GI50 (NCI-H522 lung): 0.0858 µM
- TGI (NCI-H522 lung): 0.225 µM
- GI50 (OVCAR-5 ovarian): 0.213 µM
- TGI (OVCAR-5 ovarian): 0.44 µM
- GI50 (SF-539 CNS): 0.167 µM
- TGI (SF-539 CNS): 0.307 µM
- GI50 (NCI/ADR-RES ovarian): 1.57 µM
- TGI (NCI/ADR-RES ovarian): 3.06 µM
- GI50 (PC-3 prostate): 0.177 µM
- TGI (PC-3 prostate): 0.325 µM
- GI50 (NCI-H226 lung): 0.188 µM
- TGI (NCI-H226 lung): 0.372 µM
- GI50 (HCC-2998 colon): 0.179 µM
- TGI (HCC-2998 colon): 0.327 µM
- GI50 (EKVX NSCLC): 0.222 µM
- TGI (EKVX NSCLC): 0.534 µM
- GI50 (LOX IMVI melanoma): 0.158 µM
- TGI (LOX IMVI melanoma): 0.298 µM
- GI50 (MALME-3M melanoma): 0.155 µM
- TGI (MALME-3M melanoma): 0.291 µM
- GI50 (MOLT-4 leukemia): 0.0748 µM
- TGI (MOLT-4 leukemia): 0.2 µM
- GI50 (T-47D breast): 0.169 µM
- TGI (T-47D breast): 0.319 µM
- GI50 (DU-145 prostate): 0.212 µM
- TGI (DU-145 prostate): 0.506 µM
- GI50 (HOP-62 NSCLC): 0.18 µM
- TGI (HOP-62 NSCLC): 0.339 µM
- GI50 (HCT-15 colon): 0.194 µM
- TGI (HCT-15 colon): 0.362 µM
- GI50 (HS 578T breast): 0.121 µM
- TGI (HS 578T breast): 0.246 µM
- GI50 (OVCAR-8 ovarian): 0.164 µM
- TGI (OVCAR-8 ovarian): 0.313 µM
- GI50 (SW-620 colon): 0.138 µM
- TGI (SW-620 colon): 0.275 µM
- GI50 (NCI-H23 lung): 0.163 µM
- TGI (NCI-H23 lung): 0.31 µM
- GI50 (786-0 renal): 0.18 µM
- TGI (786-0 renal): 0.361 µM
- GI50 (ACHN renal): 0.202 µM
- TGI (ACHN renal): 0.425 µM
- GI50 (RXF 393 renal): 0.149 µM
- TGI (RXF 393 renal): 0.283 µM
- GI50 (SK-MEL-28 melanoma): 0.142 µM
- TGI (SK-MEL-28 melanoma): 0.28 µM
- GI50 (M14 melanoma): 0.179 µM
- TGI (M14 melanoma): 0.324 µM
- GI50 (A498 renal): 0.263 µM
- TGI (A498 renal): 0.796 µM
- GI50 (SK-OV-3 ovarian): 0.22 µM
- TGI (SK-OV-3 ovarian): 0.538 µM
- GI50 (NCI-H460 NSCLC): 0.2 µM
- TGI (NCI-H460 NSCLC): 0.38 µM
- GI50 (MDA-MB-435 melanoma): 0.176 µM
- TGI (MDA-MB-435 melanoma): 0.321 µM
- GI50 (HL-60(TB) leukemia): 0.171 µM
- TGI (HL-60(TB) leukemia): 0.311 µM
- GI50 (UACC-257 melanoma): 0.131 µM
- TGI (UACC-257 melanoma): 0.263 µM
- GI50 (SK-MEL-5 melanoma): 0.215 µM
- TGI (SK-MEL-5 melanoma): 0.37 µM
- GI50 (UO-31 renal): 0.179 µM
- TGI (UO-31 renal): 0.324 µM
- GI50 (HT29 colon): 0.178 µM
- TGI (HT29 colon): 0.335 µM
- GI50 (HOP-92 NSCLC): 0.179 µM
- TGI (HOP-92 NSCLC): 0.328 µM
- GI50 (SF-295 CNS): 0.192 µM
- TGI (SF-295 CNS): 0.385 µM
- GI50 (SR leukemia): 0.0247 µM
- TGI (SR leukemia): 0.098 µM
- GI50 (BT-549 breast): 0.164 µM
- TGI (BT-549 breast): 0.305 µM
- GI50 (OVCAR-4 ovarian): 0.174 µM
- TGI (OVCAR-4 ovarian): 0.324 µM
- GI50 (MDA-MB-468 breast): 0.126 µM
- TGI (MDA-MB-468 breast): 0.253 µM
- GI50 (NCI-H322M lung): 0.361 µM
- TGI (NCI-H322M lung): 1.29 µM
- GI50 (IGROV1 ovarian): 0.184 µM
- TGI (IGROV1 ovarian): 0.358 µM
- GI50 (COLO 205 colon): 0.258 µM
- TGI (COLO 205 colon): 0.714 µM
- GI50 (TK-10 renal): 0.195 µM
- TGI (TK-10 renal): 0.417 µM
- GI50 (SN12C renal): 0.177 µM
- TGI (SN12C renal): 0.355 µM
- GI50 (RPMI-8226 leukemia): 0.0301 µM
- TGI (RPMI-8226 leukemia): 0.0702 µM
- GI50 (KM12 colon): 0.178 µM
- TGI (KM12 colon): 0.326 µM
